{"source": "ChEMBL document CHEMBL4616634", "about": "“4β-Hydroxywithanolide E from Goldenberry (Whole Fruits of Physalis peruviana L.) as a Promising Agent against Chronic Obstructive Pulmonary Disease” (J Nat Prod, 2020)", "key": {"[1]": {"system": "Mus musculus", "assay": "Antiinflammatory activity in C57BL/6 mouse model of CS-induced pulmonary injury assessed as reduction in IL-1beta protein expression in lungs at 2 to 4 mg/kg, ip for 5 days by ELISA", "format": "functional, organism-based"}, "[2]": {"system": "RAW264.7", "assay": "Inhibition of LPS-induced IL-6 protein expression in mouse RAW264.7 cells at 0.5 to 4 uM preincubated for 1 hr followed by LPS-stimulation and measured after 16 hrs by immunoblot analysis", "format": "functional, cell-based"}, "[3]": {"system": "Mus musculus", "assay": "Antiinflammatory activity in C57BL/6 mouse model of CS-induced pulmonary injury assessed as reduction in distinct infiltration of leukocytes in lungs at 2 to 4 mg/kg, ip for 5 days by hematoxylin and eosin staining based fluorescence microscopic analysis", "format": "functional, organism-based"}, "[4]": {"target": "T1, Nuclear factor erythroid 2-related factor 2 (Mus musculus) (UniProt Q60795)", "T1 sequence (whole entry)": "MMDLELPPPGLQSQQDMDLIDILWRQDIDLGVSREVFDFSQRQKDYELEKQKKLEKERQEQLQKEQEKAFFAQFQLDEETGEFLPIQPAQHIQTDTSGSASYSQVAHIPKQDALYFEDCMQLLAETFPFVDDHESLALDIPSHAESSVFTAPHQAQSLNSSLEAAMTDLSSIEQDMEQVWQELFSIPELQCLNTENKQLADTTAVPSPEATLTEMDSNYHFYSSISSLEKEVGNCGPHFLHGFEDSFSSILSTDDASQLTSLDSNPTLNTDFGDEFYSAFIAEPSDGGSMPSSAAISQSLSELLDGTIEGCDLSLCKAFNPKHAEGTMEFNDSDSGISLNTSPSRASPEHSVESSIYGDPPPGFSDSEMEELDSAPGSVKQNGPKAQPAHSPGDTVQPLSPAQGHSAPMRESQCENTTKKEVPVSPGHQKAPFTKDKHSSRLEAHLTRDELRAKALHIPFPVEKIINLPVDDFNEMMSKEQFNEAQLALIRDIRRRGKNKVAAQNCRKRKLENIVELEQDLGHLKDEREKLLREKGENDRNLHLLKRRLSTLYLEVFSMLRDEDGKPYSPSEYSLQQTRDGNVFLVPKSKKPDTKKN", "assay": "Activation of Nrf2 in mouse Hepa1c1c7 cells assessed as increase in quinone reductase activity incubated for 24 hrs by MTT based assay", "format": "cell-based"}, "[5]": {"target": "T1, Nuclear factor erythroid 2-related factor 2 (Mus musculus)", "assay": "Activation of Nrf2 in mouse Hepa1c1c7 cells assessed as increase in quinone reductase activity at 3.12 uM incubated for 24 hrs by MTT based assay", "format": "cell-based"}, "[6]": {"system": "RAW264.7", "assay": "Inhibition of LPS-induced NFkappaB activation in mouse RAW264.7 cells pre-incubated for 1 hr followed by LPS-stimulation and measured after 16 hrs by dual luciferase reporter gene assay", "format": "cell-based"}, "[7]": {"target": "T2, Nuclear factor erythroid 2-related factor 2 (Homo sapiens) (UniProt Q16236)", "T2 sequence (whole entry)": "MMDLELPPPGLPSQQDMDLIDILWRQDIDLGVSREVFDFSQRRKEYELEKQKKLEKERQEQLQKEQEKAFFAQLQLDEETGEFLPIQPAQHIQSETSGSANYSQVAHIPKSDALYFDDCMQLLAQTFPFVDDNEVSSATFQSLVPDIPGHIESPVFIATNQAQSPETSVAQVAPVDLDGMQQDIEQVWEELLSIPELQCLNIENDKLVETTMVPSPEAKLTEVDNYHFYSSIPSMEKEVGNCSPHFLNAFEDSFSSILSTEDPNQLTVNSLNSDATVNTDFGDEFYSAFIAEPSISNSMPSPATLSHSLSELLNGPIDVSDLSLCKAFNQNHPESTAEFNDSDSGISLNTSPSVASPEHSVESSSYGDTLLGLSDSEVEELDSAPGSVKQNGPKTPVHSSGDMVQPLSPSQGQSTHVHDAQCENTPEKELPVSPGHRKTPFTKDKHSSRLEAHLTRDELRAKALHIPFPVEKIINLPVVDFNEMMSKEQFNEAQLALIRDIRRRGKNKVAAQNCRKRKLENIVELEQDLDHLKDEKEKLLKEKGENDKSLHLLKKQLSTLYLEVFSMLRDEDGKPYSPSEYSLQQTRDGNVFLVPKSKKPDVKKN", "assay": "Stabilization of Nrf2 in human BEAS2B cells harboring (HA)-ubiquitin assessed as suppression of Nrf2 ubiquitination at 1 uM after 8 hrs in presence of MG132 by immunoblot analysis", "format": "cell-based"}, "[8]": {"target": "T2, Nuclear factor erythroid 2-related factor 2 (Homo sapiens)", "assay": "Activation of Nrf2 in human MDA-MB-231 cells assessed as increase in NQO1 protein level at 0.5 uM incubated for 16 hrs by immunoblot analysis", "format": "cell-based"}, "[9]": {"system": "Mus musculus", "assay": "Antiinflammatory activity in C57BL/6 mouse model of CS-induced pulmonary injury assessed as reduction in thickening of the alveolar septa in lungs at 2 to 4 mg/kg, ip for 5 days by hematoxylin and eosin staining based fluorescence microscopic analysis", "format": "functional, organism-based"}, "[10]": {"target": "T2, Nuclear factor erythroid 2-related factor 2 (Homo sapiens)", "assay": "Activation of Nrf2 in human MDA-MB-231 cells assessed as increase in ARE luciferase activity at 0.13 to 2 uM incubated for 16 hrs by luciferase reporter gene assay", "format": "cell-based"}, "[11]": {"system": "Mus musculus", "assay": "Antiinflammatory activity in C57BL/6 mouse model of CS-induced pulmonary injury assessed as increase in GCLM protein expression in lungs at 2 to 4 mg/kg, ip for 5 days by immunoblot analysis", "format": "functional, organism-based"}, "[12]": {"target": "T2, Nuclear factor erythroid 2-related factor 2 (Homo sapiens)", "assay": "Activation of Nrf2 in human BEAS2B cells assessed as increase in Nrf2 mRNA expression at 0.5 to 2 uM incubated for 24 hrs by qRT-PCR analysis", "format": "cell-based"}, "[13]": {"system": "RAW264.7", "assay": "Inhibition of LPS-induced COX2 protein expression in mouse RAW264.7 cells at 0.5 to 4 uM preincubated for 1 hr followed by LPS-stimulation and measured after 16 hrs by immunoblot analysis", "format": "functional, cell-based"}, "[14]": {"target": "T2, Nuclear factor erythroid 2-related factor 2 (Homo sapiens)", "assay": "Activation of Nrf2 in human MDA-MB-231 cells assessed as increase in GCLM protein level at 0.5 uM incubated for 16 hrs by immunoblot analysis", "format": "cell-based"}, "[15]": {"target": "T2, Nuclear factor erythroid 2-related factor 2 (Homo sapiens)", "assay": "Activation of Nrf2 in human MDA-MB-231 cells assessed as increase in Nrf2 protein level at 0.5 uM incubated for 16 hrs by immunoblot analysis", "format": "cell-based"}}, "note": "Active and inactive are the calls of the source. No cut-off for these calls is given here."}
{"smiles": "CC1=C(C)C(=O)O[C@H]([C@](C)(O)[C@]2(O)CC[C@@]3(O)[C@@H]4C[C@H]5O[C@]56[C@@H](O)C=CC(=O)[C@]6(C)[C@H]4CC[C@]23C)C1", "values": [{"measurement": "Activity", "setting": "[1]", "value": "Active"}, {"measurement": "inhibition", "setting": "[2]", "value": "Active"}, {"measurement": "Activity", "setting": "[3]", "value": "Active"}, {"measurement": "Activity", "setting": "[4]", "value": "Dose-dependent effect"}, {"measurement": "fold change (FC)", "setting": "[5]", "value": 2.58}, {"measurement": "inhibition", "setting": "[6]", "value": "Dose-dependent effect"}, {"measurement": "Activity", "setting": "[7]", "value": "Active"}, {"measurement": "Activity", "setting": "[8]", "value": "Active"}, {"measurement": "Activity", "setting": "[9]", "value": "Active"}, {"measurement": "Activity", "setting": "[10]", "value": "Active"}, {"measurement": "Activity", "setting": "[11]", "value": "Active"}, {"measurement": "Activity", "setting": "[12]", "value": "Active"}, {"measurement": "inhibition", "setting": "[13]", "value": "Active"}, {"measurement": "Activity", "setting": "[14]", "value": "Active"}, {"measurement": "Activity", "setting": "[15]", "value": "Active"}]}
